Measured values taken from patent US20120035177A1, “TABLET FORMULATION FOR P38 INHIBITOR AND METHOD” (Bristol-Myers Squibb Company, priority 2009, published 2012).

Test: Physical stability upon storage
Format: physicochemical
Settings: drug substance; room temperature without need for refrigeration

CCCNC(=O)c1cn2c(c1C)C(Nc1cc(C(=O)NC3CC3)ccc1C)=NCN2.Cl [p38 inhibitor]
physical stability upon storage: good physical stability
